Tests used:
Assay type in all cases: cell-based
[1] = tested on: Human pancreatic cancer cells (MIA PaCa-2); assay: Evaluation of cell survival rate by WST assay, normal vs low oxygen (Example 7, Comparative Example)
Procedure: Human pancreatic cancer cells (MIA PaCa-2, acquired from Riken Cell Bank) were dispensed at a density of 5,000 cells/well and cultured for 24 hours in Dulbecco's modified Eagle medium (DMEM), following which Compound 7 was added to the specified concentration and 6 hours of culturing was carried out at a normal oxygen concentration (20%) or a low oxygen concentration (0.1%). After culturing, DMEM medium replacement was carried out, the compound was removed, and 48 hours of culturing was carried out in a normal oxygen concentration incubator, following which the cell survival rate was analyzed by a WST assay.
Compound 8 below, which is mentioned in WO 2009/018163 A1, was furnished for use. The cell survival rates were compared in tests conducted by the method described in Example 7 on both Compound 8 and a compound within the scope of this invention (aside from the fact that the corresponding linker was —CH2CH2C(═O)—, the manner of bonding between nitroimidazole and the drug was the same; Compound 7 of Example 6).

[2] = tested on: Human pancreatic cancer cells (MIA PaCa-2); assay: Incubation of Compound 5 in MIA PaCa-2 cells under low oxygen (Example 5), release by LC/MS; conditions: Compound 5 at 10 μM, MIA PaCa-2, 20% O2 vs 0.1% O2, LC/MS, FIG. 3
Procedure: Human pancreatic cancer cells (MIA PaCa-2, acquired from Riken Cell Bank) were prepared as a suspension having a cell count of 1×10^4 cells/mL), and dispensed into a 96-well plate. After 24 hours, Compound 5 was added to a concentration of 10 μM and the cells were cultured, in a normal oxygen concentration incubator (20% O2) or at a low-oxygen work station (0.1% O2). After a given time had elapsed, the culture medium was recovered, trypsin was added and the cells were recovered. The recovered cells were disrupted by sonic treatment, the compound was extracted with acetonitrile, and analysis by LC/MS was carried out under the following conditions.
Column used: Lachrom Ultra C18 (particle size, 2 μm; 2 mm×50 mm) column
Measurement wavelength: 220 nm
Eluent A: 0.1% TFA-containing milliQ
Gradient: 95:5 (Eluent A:Eluent B)→95:5 (5 minutes)→30:70 (15 minutes)
By carrying out this measurement, the amount of compound released in a low-oxygen environment and the amount of compound released in a normal oxygen environment were compared.

cultured cells = assay: Incubation of Compound 5 in cultured cells under low oxygen (Example 4), release of naphthylmethylamine by HPLC; conditions: Compound 5 at 1 mM, 6 hours, 20% O2 vs 1% O2, HPLC, FIG. 2
Procedure: This example was carried out to confirm that Compound 5 is reduced in cells within a hypoxic environment, and that naphthylmethylamine is released by a subsequent intramolecular cyclization reaction.
A cell suspension prepared to a cell count of 1×10^4 cells/mL was dispensed into a 96-well plate, and the cells were cultured by 24 hours of incubation at 37° C. After 24 hours, the synthesized Compound 5 was added to the cells in an amount of 1 mM. Following addition, the cells were cultured for 6 hours each in a normal oxygen concentration incubator (20% O2) or at a low-oxygen work station (1% O2). The culture medium was then recovered, 50 μL of Trypsin/EDTA was added and 5 minutes of incubation was carried out, following which the cells were stripped away and added to the medium that was earlier recovered. Next, the recovered sample was freeze-dried overnight, 200 μL of acetonitrile was added, and 30 minutes of ultrasonic cleaning was carried out. In addition, dead cells were precipitated by centrifugal separation (3,000 rpm, 10 min), the supernatant was recovered, and the acetonitrile was removed with a centrifugal evaporator. Next, 200 μL of methanol (for LC/MS) was added to the Eppendorf tube used in centrifugation, the tube contents were passed through a filter (0.2 μm), and LC/MS measurement and high-performance liquid chromatography (HPLC) measurement were carried out. […]

[3] = tested on: Human pancreatic cancer cells (MIA PaCa-2); assay: Release of drug from prednisolone prodrug in low-oxygen environment (Example 16), LC/MS; conditions: Compound 13 at a concentration of 10, one hour, 20% O2 vs 0.1% O2, LC/MS, FIG. 8
Procedure: Human pancreatic cancer cells (MIA PaCa-2, acquired from Riken Cell Bank) were prepared as a suspension having a cell count of 1×10^4 cells/mL), and dispensed into a 96-well plate. After 24 hours, Compound 13 was added to a concentration of 10 and the cells were cultured in a normal oxygen concentration incubator (20% O2) or at a low-oxygen work station (0.1% O2). One hour layer, the culture medium was recovered, trypsin was added, and the cells were recovered. The recovered cells were disrupted by sonic treatment and the compound was extracted with acetonitrile, following which analysis by LC/MS of the amount of prednisolone released was carried out under the following conditions.
Column used: TSKgel ODS-100Z (particle size, 3 μm; 2 mm×75 mm) column
Measurement wavelength: 250 nm
Eluent A: 0.1 M ammonium acetate
Gradient: 40:60 (Eluent A:Eluent B)→10:90 (20 minutes)
By carrying out this measurement, the amount of compound released in a low-oxygen environment was compared with the amount released in a normal oxygen environment.

COc1cccc2c1C(=O)c1c(O)c3c(c(O)c1C2=O)CC(O)(C(=O)CO)CC3OC1CC(NC(=O)CCn2ccnc2[N+](=O)[O-])C(O)C(C)O1 (centres unmarked) [Compound 7]
cell survival rate at low oxygen concentration compared with normal oxygen concentration ([1]; 6 hours at 20% or 0.1% O2, then 48 hours normal oxygen, WST assay, FIG. 4): significantly lowers the survival rate of human pancreatic cancer cells at a low-oxygen concentration compared with a normal oxygen concentration | cytotoxicity compared with known Compound 8 ([1]; method of Example 7, MIA PaCa-2, FIG. 5): significantly higher cytotoxicity

O=C(CCn1ccnc1[N+](=O)[O-])NCc1cccc2ccccc12 [Compound 5, N-Naphthylmethyl-3-(2-Nitro-1H-Imidazolyl)propionylamide]
amount of naphthylmethylamine released in low-oxygen vs normal oxygen environment [2]: much naphthylmethylamine is released in a low-oxygen environment | amount of naphthylmethylamine released in low-oxygen vs normal oxygen environment (cultured cells): much naphthylmethylamine is released in a low-oxygen environment

C[C@]12C=CC(=O)C=C1CC[C@@H]1[C@@H]2[C@@H](O)C[C@@]2(C)[C@H]1CC[C@]2(O)C(=O)COC(=O)CCn1ccnc1[N+](=O)[O-] [Compound 13]
amount of prednisolone released in low-oxygen vs normal oxygen environment [3]: much prednisolone is released in a low-oxygen environment

Source: patent publication US9655975B2, “Prodrug using nitroimidazole” (UNIVERSITY OF TSUKUBA, priority 2012, dated 2017)
